Tests used:
Format in all cases: in vivo
Alternaria brassicicola = experiment: Field assessment of Alternaria brassicicola (ALTEBI) on cabbage, 2 day protectant; conditions: 5% EC + Trycol
Text: Field assessment of Alternaria brassicicola (ALTEBI) on cabbage:
A fungicidal treatment containing Compound I, applied in a 5% EC formulation and tank mixed with an adjuvant (Trycol, 50% w/w at 0.2% v/v), was sprayed three times on head cabbage plants (BRSOL) with the first application at 10-12 LF stage of cabbage. The following applications were done at 7 day intervals will all applications being sprayed at rates of 50, 100, and 150 grams of active ingredient per hectare (g ai/ha). The experimental plots were inoculated with black leaf spot pathogen 2 days after the first application. The treatment was part of an experimental trial designed as a randomized complete block with four replications and a plot of approximately 2×1 m, with compound I being applied at water volume of 800 L/ha.
Disease severity was assessed as the percent diseased area of cabbage bottom foliage (6 plants per plot randomly). Visual infection was assessed three times during the trial at 7 days after each application. Area under the disease progress curve (AUDPC) was calculated for each plot using the sets of recorded severity data. Relative AUDPC (% control based on AUDPC) was calculated as percent of the nontreated control.

Corynespora cassiicola = experiment: Field assessment of Corynespora cassiicola (CORYCA) in tomato; conditions: SC
Text: Field Assessment of Corynespora cassiicola (CORYCA) in Tomato:
A fungicidal treatment containing Compound I, applied in an SC formulation (MSO built-in) and tank mixed with an adjuvant (Agnique BP-420, 50% w/w at 0.2% v/v or Adsee C80W 80%), was sprayed on tomato plants (LYPES, Charger variety) at growth stage BBCH64 (4th flower open) at rates of 50, 75, 100, and 150 grams of active ingredient per hectare (g ai/ha). The experimental plots were inoculated with the target spot pathogen one day after initial application. The treatment was part of an experimental trial designed as a randomized complete block (RCB) with four replications and a plot of approximately 6×25 feet (ft). Compound I was applied at water volume of 100 gallons per acre (gal/acre), using a tractor sprayer (SCDISC D1 Nozzles) and pressurized at 200 psi.
Disease severity (percentage of visual diseased foliage (leaf) on whole plot) was assessed four times during the trial (1-20 days after application, DAA). Area under the disease progress curve (AUDPC) was calculated for each plot using the sets of recorded severity data. Relative AUDPC (% control based on AUDPC) was calculated as percent of the untreated control.

Erysiphe cichoracearum [1] = experiment: Field assessment of Erysiphe cichoracearum (ERYSCI) on cucumber, 2 day curative; conditions: 5% EC + Trycol
Text: (§1) Field Assessment of Erysiphe Cichoracearum (ERYSCI) on Cucumber:
In the curative trial, a fungicidal treatment containing a 5% EC formulation of compound I plus an adjuvant (Trycol, 50% w/w at 0.2% v/v), was sprayed on cucumber plants (CUMSA) twice, the first application at the fruiting stage 29 days after planting, with the second application after 7 days. Formulations of compound I were applied at rates of 50, 100 and 150 grams of active ingredient per hectare (g ai/ha). The experimental plots were inoculated with the powdery mildew pathogen 2 days before the first application (curative). The treatment was part of an experimental trial designed as a randomized complete block with four replications and a plot of approximately 2×1 m, with formulations of compound I being applied at water volume of 1200 L/ha based on seedling sizes.
Disease severity was assessed as percent diseased area of cucumber foliage per plant (6 plants per plot randomly). Powdery mildew disease severity was assessed four times, 7 days after application A (DAAA), plus 7, 14 and 21 DAAB. Area under the disease progress curve (AUDPC) was calculated for each plot using the sets of recorded visual infection data. Relative AUDPC (% control based on AUDPC) was calculated as percent of the nontreated control.

Erysiphe cichoracearum [2] = experiment: Field assessment of Erysiphe cichoracearum (ERYSCI) on cucumber, 2 day protectant; conditions: 5% EC + Trycol
Description: as §1
Assessment of compound I of ERYSCI on cucumbers, in both protectant and curative fashion, was performed in two separate field trials. For the two day protectant test (2DP), a fungicidal treatment containing a 5% EC formulation of compound I plus an adjuvant (Trycol, 50% w/w at 0.2% v/v), was sprayed on cucumber plants (CUMSA) twice, the first application at the fruiting stage 41 days after planting, with the following application after 7 days. Formulations of compound I were applied at rates of 50, 100, and 150 grams of active ingredient per hectare (g ai/ha). The experimental plots were inoculated with the powdery mildew pathogen 2 days after the first application. The treatment was part of an experimental trial designed as a randomized complete block with four replications and a plot of approximately 2×1 m, with formulations of compound I being applied at water volume of 1200 L/ha based on seedling sizes.
Disease severity was assessed as percent diseased area of cucumber foliage per plant (6 plants per plot randomly). Cucumber powdery mildew infection was assessed three times, 7 days after application A (DAAA), and 7 and 14 DAAB. Area under the disease progress curve (AUDPC) was calculated for each plot using the sets of recorded visual infection data. Relative AUDPC (% control based on AUDPC) was calculated as percent of the nontreated control.

Botrytis cinerea = experiment: Greenhouse assessment of Botrytis cinerea (BOTRCI) on broad bean; conditions: inoculated 1-day post application
Description: Greenhouse Assessment of Botrytis cinerea (BOTRCI) on Broad Bean: Technical grades of material were dissolved in acetone, which were then mixed with nine volumes of water containing 100 ppm of Triton X-100. The fungicide formulations were applied onto seedling plants using an automated booth sprayer to run off. All sprayed plants were allowed to dry prior to further handling. Test plants were inoculated with Botrytis cinerea 1-day post application. When disease symptoms were fully expressed on the untreated plants, percent diseased area of the plant was assessed on a scale of 0 to 100 percent disease severity. Percent disease control was calculated using the ratio of disease severity on treated plants relative to untreated plants.

Compound: COc1ccnc(C(=O)N[C@@H](C)C(=O)O[C@@H](C)C(c2ccc(F)cc2)c2ccc(F)cc2)c1OC(C)=O [Compound I, (S)-1,1-bis(4-fluorophenyl)propan-2-yl (3-acetoxy-4-methoxypicolinoyl)-L-alaninate]
- Percent control based on AUDPC, ALTEBI 2 DP (Alternaria brassicicola; 50 g ai/ha): C (26-50)
- Percent control based on AUDPC, ALTEBI 2 DP (Alternaria brassicicola; 100 g ai/ha): B (51-75)
- Percent control based on AUDPC, ALTEBI 2 DP (Alternaria brassicicola; 150 g ai/ha): B (51-75)
- Percent Control of CORYCA (AUDPC) (Corynespora cassiicola; Compound I 50 g/ha, Agnique BP420, 200 mL/ha): 53.1%
- Percent Control of CORYCA (AUDPC) (Corynespora cassiicola; Compound I 50 g/ha, MSO, 100 g/ha): 55.2%
- Percent Control of CORYCA (AUDPC) (Corynespora cassiicola; Compound I 75 g/ha, Agnique BP420, 300 mL/ha): 56.9%
- Percent Control of CORYCA (AUDPC) (Corynespora cassiicola; Compound I 75 g/ha, MSO, 150 g/ha): 56.1%
- Percent Control of CORYCA (AUDPC) (Corynespora cassiicola; Compound I 100 g/ha, Adsee C80W 80%, 250 g/ha): 61.4%
- Percent Control of CORYCA (AUDPC) (Corynespora cassiicola; Compound I 100 g/ha, Agnique BP420, 400 mL/ha): 74.1%
- Percent Control of CORYCA (AUDPC) (Corynespora cassiicola; Compound I 100 g/ha, MSO, 200 g/ha): 71.6%
- Percent Control of CORYCA (AUDPC) (Corynespora cassiicola; Compound I 150 g/ha, Agnique BP420, 600 mL/ha): 83.9%
- Percent Control of CORYCA (AUDPC) (Corynespora cassiicola; Compound I 150 g/ha, MSO, 300 g/ha): 84.0%
- Percent control based on AUDPC, ERYSCI 2 DC (Erysiphe cichoracearum [1]; 50 g ai/ha): A (76-100)
- Percent control based on AUDPC, ERYSCI 2 DC (Erysiphe cichoracearum [1]; 100 g ai/ha): B (51-75)
- Percent control based on AUDPC, ERYSCI 2 DC (Erysiphe cichoracearum [1]; 150 g ai/ha): C (26-50)
- Percent control based on AUDPC, ERYSCI 2 DP (Erysiphe cichoracearum [2]; 50 g ai/ha): A (76-100)
- Percent control based on AUDPC, ERYSCI 2 DP (Erysiphe cichoracearum [2]; 100 g ai/ha): A (76-100)
- Percent control based on AUDPC, ERYSCI 2 DP (Erysiphe cichoracearum [2]; 150 g ai/ha): A (76-100)
- % Control, BOTRCI (Botrytis cinerea; 6.25 ppm): B (51-75)
- % Control, BOTRCI (Botrytis cinerea; 25 ppm): A (76-100)
- % Control, BOTRCI (Botrytis cinerea; 100 ppm): A (76-100)
- % Control, BOTRCI (Botrytis cinerea; 400 ppm): A (76-100)

Reference: patent US20200085047A1, “Use of an Acyclic Picolinamide Compound as a Fungicide for Control of Phytopathogenic Fungi in Vegetables” (Dow AgroSciences LLC, priority 2017, published 2020)
